The values that follow are results of earlier work, collected in paper PMC8965884, “Synthesis and Characterization of Phenylboronic Acid-Modified Insulin With Glucose-Dependent Solubility” (Frontiers in Chemistry, 2022).

On the data set, the source says: Insulin glargine, marketed as Lantus®, is a long-acting insulin analog with a 24-h dosing regimen. The additional 2 arginine residues on the C-terminus of the B chain increases its isoelectric point (pI) 6.7, which lowers its solubility at physiological pH and leads to precipitation at the subcutaneous injection site ([Kohn et al., 2007]). Glargine is then released slowly from the precipitate into the bloodstream to establish the long-acting property.

For the compound `OB(O)c1ccccc1` [PBA, phenylboronic acids], the pKa (commonly the pH at which an ionisable group is half protonated) (non-substituted PBA, ref Yan et al., 2004) was 8.8.
For the compound Insulin glargine, the “isoelectric point (pI)” value (ref Kohn et al., 2007) is on record as 6.7.
